Test results as given in ChEMBL document CHEMBL1155862, “High affinity conformationally constrained nociceptin/orphanin FQ(1-13) amide analogues” (J Med Chem, 2008).
Blank lines part the entries; values can stand above or below the compound they belong to. Peptide text beside a SMILES is read from it.

Tests used:
[1] = molecular target: T1, Nociceptin receptor (Homo sapiens, UniProt P41146); assay: Agonist activity at human NOP receptor expressed in CHO cells assessed as stimulation of [35S]GTPgammaS binding relative to nociceptin/orphanin FQ (1-13)NH2 peptide; assay type: functional, cell-based
T1 sequence (P41146 whole entry): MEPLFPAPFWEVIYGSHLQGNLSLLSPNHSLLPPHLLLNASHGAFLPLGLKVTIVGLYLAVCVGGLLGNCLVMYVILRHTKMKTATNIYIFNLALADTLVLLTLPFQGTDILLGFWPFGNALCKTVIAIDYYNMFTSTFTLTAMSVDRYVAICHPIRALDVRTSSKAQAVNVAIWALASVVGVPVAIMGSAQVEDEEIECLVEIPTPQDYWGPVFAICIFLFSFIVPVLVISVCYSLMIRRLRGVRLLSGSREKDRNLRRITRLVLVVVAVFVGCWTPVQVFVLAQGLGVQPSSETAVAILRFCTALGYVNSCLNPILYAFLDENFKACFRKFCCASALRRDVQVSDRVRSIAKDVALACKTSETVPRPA

[2] = molecular target: T1, Nociceptin receptor; assay: Binding affinity to human NOP receptor
[3] = molecular target: T1, Nociceptin receptor; assay: Agonist activity at human NOP receptor by [35S]GTPgammaS binding assay; assay type: functional
[4] = molecular target: T1, Nociceptin receptor; assay: Agonist activity at human NOP receptor expressed in CHO cells assessed as stimulation of [35S]GTPgammaS binding; assay type: functional, cell-based
[5] = molecular target: T1, Nociceptin receptor; assay: Displacement of [3H]N/OFQ from human NOP receptor expressed in CHO cells; assay type: cell-based

Activity [1]: 80%
Compound: C[C@H](NC(=O)[C@@H]1CCCCNC(=O)C[C@H](NC(=O)[C@@H](NC(=O)[C@H](Cc2ccccc2)NC(=O)CNC(=O)CNC(=O)[C@@H](N)Cc2ccccc2)[C@@H](C)O)C(=O)N[C@@H](C)C(=O)N[C@@H](CCCNC(=N)N)C(=O)N[C@@H](CCCCN)C(=O)N1)C(=O)N[C@@H](CCCNC(=N)N)C(=O)N[C@@H](CCCCN)C(N)=O (HELM PEPTIDE1{F.G.G.F.T.D.A.R.K.K.A.R.K.[am]}$PEPTIDE1,PEPTIDE1,6:R3-10:R3$$$V2.0)

Compound: C[C@H](NC(=O)[C@@H]1CSSC[C@H](NC(=O)CNC(=O)[C@@H](NC(=O)[C@H](Cc2ccccc2)NC(=O)CNC(=O)CNC(=O)[C@@H](N)Cc2ccccc2)[C@@H](C)O)C(=O)N[C@@H](CCCN=C(N)N)C(=O)N[C@@H](CCCCN)C(=O)N1)C(=O)N[C@@H](CCCN=C(N)N)C(=O)N[C@@H](CCCCN)C(N)=O (HELM PEPTIDE1{F.G.G.F.T.G.C.R.K.C.A.R.K.[am]}$PEPTIDE1,PEPTIDE1,7:R3-10:R3$$$V2.0)
Ki [2]: 0.1 nM
EC50 [3]: 0.69 nM

Compound: C[C@H](NC(=O)[C@H](CCCCN)NC(=O)[C@H](CCCCN)NC(=O)[C@H](CCCN=C(N)N)NC(=O)[C@@H](CC(=O)O)NC(=O)CNC(=O)[C@@H](NC(=O)[C@H](Cc1ccccc1)NC(=O)CNC(=O)CNC(=O)[C@@H](N)Cc1ccccc1)[C@@H](C)O)C(=O)N[C@@H](CCCN=C(N)N)C(=O)N[C@@H](CCCCN)C(N)=O
EC50 [4]: 106 nM
Ki [5]: 1.79 nM

Compound: C[C@H](NC(=O)[C@@H]1CSSC[C@H](NC(=O)[C@@H](NC(=O)[C@H](Cc2ccccc2)NC(=O)CNC(=O)CNC(=O)[C@@H](N)Cc2ccccc2)[C@@H](C)O)C(=O)N[C@@H](C)C(=O)N[C@@H](CCCNC(=N)N)C(=O)N[C@@H](CCCCN)C(=O)N1)C(=O)N[C@@H](CCCNC(=N)N)C(=O)N[C@@H](CCCCN)C(N)=O (HELM PEPTIDE1{F.G.G.F.T.C.A.R.K.C.A.R.K.[am]}$PEPTIDE1,PEPTIDE1,6:R3-10:R3$$$V2.0)
Ki [2]: 0.83 nM

Compound: H-FGGFTDARKKARK-NH2
Activity [1]: 122%
EC50 [4]: 22.3 nM
Ki [5]: 0.54 nM

Compound: C[C@H](NC(=O)[C@@H]1CCCCNC(=O)C[C@H](NC(=O)[C@@H](NC(=O)[C@H](Cc2ccccc2)NC(=O)CNC(=O)CNC(=O)[C@@H](N)Cc2ccccc2)[C@@H](C)O)C(=O)N[C@@H](C)C(=O)N[C@@H](CCCN=C(N)N)C(=O)N[C@@H](CCCCN)C(=O)N1)C(=O)N[C@@H](CCCN=C(N)N)C(=O)N[C@@H](CCCCN)C(N)=O (HELM PEPTIDE1{F.G.G.F.T.D.A.R.K.K.A.R.K.[am]}$PEPTIDE1,PEPTIDE1,6:R3-10:R3$$$V2.0)
EC50 [4]: 4.12 nM
Ki [5]: 0.34 nM

Compound: C[C@H](NC(=O)[C@@H]1CCCCNC(=O)C[C@@H](NC(=O)CNC(=O)[C@@H](NC(=O)[C@H](Cc2ccccc2)NC(=O)CNC(=O)CNC(=O)[C@@H](N)Cc2ccccc2)[C@@H](C)O)C(=O)N[C@@H](CCCNC(=N)N)C(=O)N[C@@H](CCCCN)C(=O)N1)C(=O)N[C@@H](CCCNC(=N)N)C(=O)N[C@@H](CCCCN)C(N)=O
EC50 [4]: 1.6 nM
Ki [5]: 0.27 nM

Activity [1]: 92%
Compound: C[C@H](NC(=O)[C@@H]1CCCCNC(=O)C[C@H](NC(=O)CNC(=O)[C@@H](NC(=O)[C@H](Cc2ccccc2)NC(=O)CNC(=O)CNC(=O)[C@@H](N)Cc2ccccc2)[C@@H](C)O)C(=O)N[C@@H](CCCNC(=N)N)C(=O)N[C@@H](CCCCN)C(=O)N1)C(=O)N[C@@H](CCCNC(=N)N)C(=O)N[C@@H](CCCCN)C(N)=O

Compound: C[C@H](NC(=O)[C@H](CCCCN)NC(=O)[C@H](CCCCN)NC(=O)[C@H](CCCNC(=N)N)NC(=O)[C@@H](CC(=O)O)NC(=O)CNC(=O)[C@@H](NC(=O)[C@H](Cc1ccccc1)NC(=O)CNC(=O)CNC(=O)[C@@H](N)Cc1ccccc1)[C@@H](C)O)C(=O)N[C@@H](CCCNC(=N)N)C(=O)N[C@@H](CCCCN)C(N)=O
Activity [1]: 100%
